Patent US11957687B2 (REGENERON PHARMACEUTICALS, INC., priority 2019, dated 2024)
Like-named read-outs stand apart in the source and are kept apart here.

Key:
[1] = target: HSD17B13 (Homo sapiens (Human), UniProt Q7Z5P4); test: HSD17B13 enzymatic inhibition assay (150 nM or 50 nM HSD17B13); assay type: biochemical
[2] = Microsome stability assay, human liver microsomes; assay type: in vitro ADME; details: 1 μM compound, 0.5 mg/mL microsomal protein; for microsomal CLint at 1 μM / half-life at 1 μM / microsomal CLint at 1 h, 1 µM / half-life at 1 h, 1 µM: human, human liver microsomes, pooled, NADPH, 37° C.; for microsomal CLint at 1 μM / microsomal CLint at 1 h, 1 µM: read-out: Microsome Stability Human liver microsomes Cl; for half-life at 1 μM / half-life at 1 h, 1 µM: read-out: Microsome Stability Human liver microsomes T½
Description: Compounds of the disclosure were screened in microsome stability assays. For the screen, test compounds were incubated at 37° C. with either human liver microsomes (Corning; #452117) or mouse liver microsomes (XenoTech; #M1000), pooled from multiple donors, at 1 μM in the presence of a NADPH regenerating system at 0.5 mg/mL microsomal protein. Positive controls included in the assay were testosterone (3A4 substrate), propafenone (2D6) and diclofenac (2C9). Samples were removed at different time points (0, 5, 10, 20, 30 and 60 minutes) and immediately mixed with cold acetonitrile containing internal standard (IS, 200 ng/mL tolbutamide and 200 ng/mL labetalol). Test compounds incubated with microsomes for 60 minutes without the NADPH regenerating system was also included. A single point for each test condition (n=1) was obtained, and samples were analyzed by LC/MS/MS. Disappearance of the test compound was assessed based on peak area ratios of analyte/IS (no standard curve).

[3] = 50 nM HSD17B13, read-out: Inhibition of 50 nM of HSD17B13 IC50
[4] = 150 nM HSD17B13, read-out: Inhibition of 150 nM of HSD17B13 IC50

HSD17B13, sequence (Q7Z5P4 other isoform, or with tags, fused parts or gaps): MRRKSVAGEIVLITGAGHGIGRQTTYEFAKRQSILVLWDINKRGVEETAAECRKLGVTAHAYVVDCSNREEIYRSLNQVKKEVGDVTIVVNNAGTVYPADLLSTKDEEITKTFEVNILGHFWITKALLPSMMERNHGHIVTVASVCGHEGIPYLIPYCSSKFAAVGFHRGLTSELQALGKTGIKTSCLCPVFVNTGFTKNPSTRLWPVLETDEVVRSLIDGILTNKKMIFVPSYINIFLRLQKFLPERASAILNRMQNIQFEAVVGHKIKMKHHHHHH

## CS(=O)(=O)Nc1ccc(C(NC(=O)c2ccc(C(F)(F)F)[nH]c2=O)c2ccccc2)cc1 (centres unmarked) [Compound 7A, N-((4-(methylsulfonamido)phenyl)(phenyl)methyl)-2-oxo-6-(trifluoromethyl)-1,2-dihydropyridine-3-carboxamide]
[1]; [3]
  IC50: 1.1 µM
[2]
  Microsome Stability Human liver microsomes % Remaining @60 min: 93.90%
  microsomal CLint at 1 μM: < 9.6 µL/min/mg
  half-life at 1 μM: > 145 min

## O=C(NC(c1ccccc1)c1cccc(C(F)(F)F)c1)c1ccc(C(F)(F)F)[nH]c1=O (centres unmarked) [Compound 7, 2-oxo-N-(phenyl(3-(trifluoromethyl)phenyl)methyl)-6-(trifluoromethyl)-1,2-dihydropyridine-3-carboxamide]
[1]; [3]
  IC50: 3.09 µM
[2]
  Microsome Stability Human liver microsomes % Remaining @60 min: 101.00%
  microsomal CLint at 1 μM: < 9.6 µL/min/mg
  half-life at 1 μM: > 145 min

## CCCc1ccc(C(NC(=O)c2ccc(C(F)(F)F)[nH]c2=O)c2ccccc2)cc1 (centres unmarked) [Compound 36, 2-oxo-N-(phenyl(4-propylphenyl)methyl)-6-(trifluoromethyl)-1,2-dihydropyridine-3-carboxamide]
[1]; [3]
  IC50: 0.68 µM
[2]
  Microsome Stability Human liver microsomes % Remaining @60 min: 2.00%
  microsomal CLint at 1 h, 1 µM: 126 µL/min/mg
  half-life at 1 h, 1 µM: 11 min

## CC(C)c1ccc(C(NC(=O)c2ccc(C(F)(F)F)[nH]c2=O)c2ccccc2)cc1 (centres unmarked) [Compound 37, N-((4-isopropylphenyl)(phenyl)methyl)-2-oxo-6-(trifluoromethyl)-1,2-dihydropyridine-3-carboxamide]
[1]; [3]
  IC50: 0.78 µM
[2]
  Microsome Stability Human liver microsomes % Remaining @60 min: 5.70%
  microsomal CLint at 1 h, 1 µM: 92.4 µL/min/mg
  half-life at 1 h, 1 µM: 15 min

## Cc1ccc(CNC(=O)c2ccc(C(F)(F)F)[nH]c2=O)cc1 [Compound 215, N-(4-methylbenzyl)-2-oxo-6-(trifluoromethyl)-1,2-dihydropyridine-3-carboxamide]
[1]; [3]
  IC50: 2.2 µM
[2]
  Microsome Stability Human liver microsomes % Remaining @60 min: 1.00%
  microsomal CLint at 1 h, 1 µM: 414 µL/min/mg
  half-life at 1 h, 1 µM: 3.35 min

## CC(C)Cc1ccc(C(NC(=O)c2ccc(C(F)(F)F)[nH]c2=O)c2ccccc2)cc1 (centres unmarked) [Compound 13, N-((4-isobutylphenyl)(phenyl)methyl)-2-oxo-6-(trifluoromethyl)-1,2-dihydropyridine-3-carboxamide]
[1]; [3]
  IC50: 0.94 µM
[2]
  Microsome Stability Human liver microsomes % Remaining @60 min: 1.44%
  microsomal CLint at 1 h, 1 µM: 138 µL/min/mg
  half-life at 1 h, 1 µM: 10.1 min

## O=C(NC(c1ccccc1)c1ccc2c(c1)OCO2)c1ccc(C(F)(F)F)[nH]c1=O (centres unmarked) [Compound 3, N-(benzo[d][1,3]dioxol-5-yl(phenyl)methyl)-2-oxo-6-(trifluoromethyl)-1,2-dihydropyridine-3-carboxamide]
[1]; [4]
  IC50: 1.31 µM
[2]
  Microsome Stability Human liver microsomes % Remaining @60 min: 1.00%
  microsomal CLint at 1 h, 1 µM: 217 µL/min/mg
  half-life at 1 h, 1 µM: 6.39 min

## Cc1ccc(C(=O)NC(c2ccccc2)c2ccccc2O)c(=O)[nH]1 (centres unmarked) [Compound 65, N-((2-hydroxyphenyl)(phenyl)methyl)-6-methyl-2-oxo-1,2-dihydropyridine-3-carboxamide]
[1]; [4]
  IC50: > 30 µM
[2]
  Microsome Stability Human liver microsomes % Remaining @60 min: 50.10%
  microsomal CLint at 1 h, 1 µM: 118 µL/min/mg
  half-life at 1 μM: 11.8 min

## CC1CCC(C(NC(=O)c2ccc(C(F)(F)F)[nH]c2=O)c2ccccc2)CC1 (centres unmarked) [Compound 399, N-((4-methylcyclohexyl)(phenyl)methyl)-2-oxo-6-(trifluoromethyl)-1,2-dihydropyridine-3-carboxamide]
[1]; [3]
  IC50: 0.3 µM

## CCc1cc(C(F)(F)F)[nH]c(=O)c1C(=O)NC1c2ccc(Cl)cc2Oc2cccc(Cl)c21 (centres unmarked) [Compound 205, N-(1,6-dichloro-9H-xanthen-9-yl)-4-ethyl-2-oxo-6-(trifluoromethyl)-1,2-dihydropyridine-3-carboxamide]
[1]; [3]
  IC50: > 10 µM

## Cc1ccc2c(c1)OC(C)C2NC(=O)c1ccc(C(F)(F)F)[nH]c1=O (centres unmarked) [Compound 356, N-(2,6-dimethyl-2,3-dihydrobenzofuran-3-yl)-2-oxo-6-(trifluoromethyl)-1,2-dihydropyridine-3-carboxamide]
[1]; [3]
  IC50: 2.16 µM
